Test results published in ChEMBL document CHEMBL3784917, “Recent Progress in Histone Demethylase Inhibitors” (J Med Chem, 2016).

Key:
[1] = target: T1, Lysine-specific demethylase 4A (Homo sapiens, UniProt O75164)
T1 sequence (O75164 whole entry): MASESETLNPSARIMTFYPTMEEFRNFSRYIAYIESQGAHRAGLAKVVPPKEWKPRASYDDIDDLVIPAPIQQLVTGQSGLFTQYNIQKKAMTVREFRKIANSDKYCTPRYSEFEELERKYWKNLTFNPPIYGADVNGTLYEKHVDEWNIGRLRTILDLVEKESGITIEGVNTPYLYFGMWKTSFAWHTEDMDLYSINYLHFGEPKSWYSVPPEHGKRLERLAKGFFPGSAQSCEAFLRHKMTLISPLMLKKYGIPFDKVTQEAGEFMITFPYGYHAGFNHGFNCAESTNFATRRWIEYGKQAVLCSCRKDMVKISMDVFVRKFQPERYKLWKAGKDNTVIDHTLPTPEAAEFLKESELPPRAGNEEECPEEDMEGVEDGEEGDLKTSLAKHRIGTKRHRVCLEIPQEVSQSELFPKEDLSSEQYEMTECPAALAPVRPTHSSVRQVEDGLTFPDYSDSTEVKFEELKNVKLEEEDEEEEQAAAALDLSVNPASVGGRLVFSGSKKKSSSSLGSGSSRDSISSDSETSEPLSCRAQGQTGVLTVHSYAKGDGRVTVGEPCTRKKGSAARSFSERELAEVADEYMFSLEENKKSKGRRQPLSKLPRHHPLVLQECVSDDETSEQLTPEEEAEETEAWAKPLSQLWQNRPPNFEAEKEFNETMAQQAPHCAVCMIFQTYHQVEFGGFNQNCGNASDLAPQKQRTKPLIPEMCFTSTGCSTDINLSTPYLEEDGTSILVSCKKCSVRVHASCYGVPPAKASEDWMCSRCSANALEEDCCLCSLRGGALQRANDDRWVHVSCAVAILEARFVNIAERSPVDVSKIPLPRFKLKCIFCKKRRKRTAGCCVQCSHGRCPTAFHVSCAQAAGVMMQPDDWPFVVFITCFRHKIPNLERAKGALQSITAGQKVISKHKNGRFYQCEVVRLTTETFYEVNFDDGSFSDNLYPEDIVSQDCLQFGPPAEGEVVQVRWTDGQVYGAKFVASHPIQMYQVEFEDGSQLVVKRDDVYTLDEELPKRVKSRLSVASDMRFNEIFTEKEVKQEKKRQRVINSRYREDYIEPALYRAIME

[2] = target: T2, Lysine-specific demethylase 5A (Homo sapiens, UniProt P29375); parameters: species or system Sf9
[3] = target: T1, Lysine-specific demethylase 4A; remark: listed apart in the source
[4] = target: Lysine-specific demethylase 6B (Homo sapiens, UniProt O15054); experiment: Inhibition of human C-terminal FLAG-tagged KDM6B (1043 residues) expressed in baculovirus infected sf9 cells using H3K27me3 (21 to 44 residues) substrate preincubated for 10 mins followed by substrate addition measured after 45 mins by TR-FRET assay
[5] = target: T1, Lysine-specific demethylase 4A; remark: listed apart in the source
[6] = target: T2, Lysine-specific demethylase 5A
[7] = target: T3, Lysine-specific demethylase 2A (Homo sapiens, UniProt Q9Y2K7); experiment: Competitive inhibition of recombinant His6-tagged KDM2A (1 to 517 residues) (unknown origin) expressed in Escherichia coli BL21 cells using methylstat as substrate preincubated for 30 mins followed by substrate addition measured after 4 hrs by fluorescence polarization assay
T3 sequence (Q9Y2K7 whole entry): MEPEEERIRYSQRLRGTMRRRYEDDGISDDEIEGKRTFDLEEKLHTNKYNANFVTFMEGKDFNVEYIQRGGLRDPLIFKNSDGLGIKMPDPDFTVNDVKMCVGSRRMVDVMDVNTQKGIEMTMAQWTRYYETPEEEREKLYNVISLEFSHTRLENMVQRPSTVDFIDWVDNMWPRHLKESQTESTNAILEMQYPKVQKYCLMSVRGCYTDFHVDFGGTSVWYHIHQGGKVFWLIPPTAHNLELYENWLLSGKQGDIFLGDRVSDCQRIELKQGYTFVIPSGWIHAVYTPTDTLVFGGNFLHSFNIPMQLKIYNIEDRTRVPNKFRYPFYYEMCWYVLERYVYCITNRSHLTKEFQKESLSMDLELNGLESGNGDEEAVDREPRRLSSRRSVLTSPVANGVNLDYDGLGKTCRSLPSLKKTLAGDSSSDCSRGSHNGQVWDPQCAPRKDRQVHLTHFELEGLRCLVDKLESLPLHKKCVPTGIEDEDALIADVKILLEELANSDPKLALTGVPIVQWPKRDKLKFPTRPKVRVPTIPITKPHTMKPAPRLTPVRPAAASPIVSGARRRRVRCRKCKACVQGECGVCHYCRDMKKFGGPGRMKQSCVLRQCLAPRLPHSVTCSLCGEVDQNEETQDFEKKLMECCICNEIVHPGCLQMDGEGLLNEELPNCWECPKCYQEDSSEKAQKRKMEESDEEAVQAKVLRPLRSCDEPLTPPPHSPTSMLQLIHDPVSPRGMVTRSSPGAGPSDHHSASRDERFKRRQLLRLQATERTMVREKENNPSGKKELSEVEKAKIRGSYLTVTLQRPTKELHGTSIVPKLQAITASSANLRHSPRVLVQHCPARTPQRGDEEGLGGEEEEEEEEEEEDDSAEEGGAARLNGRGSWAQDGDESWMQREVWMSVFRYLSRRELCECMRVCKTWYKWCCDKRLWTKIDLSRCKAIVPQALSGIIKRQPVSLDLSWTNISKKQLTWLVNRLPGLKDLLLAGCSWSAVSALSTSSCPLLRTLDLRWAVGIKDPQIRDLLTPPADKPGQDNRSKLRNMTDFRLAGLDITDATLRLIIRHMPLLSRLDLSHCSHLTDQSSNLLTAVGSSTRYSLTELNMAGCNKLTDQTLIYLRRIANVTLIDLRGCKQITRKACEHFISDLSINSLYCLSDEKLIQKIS

[8] = Growth inhibition of human MIAPaCa2 cells after 48 hrs by CellTiter-Glo assay; format: functional; details: MIA PaCa-2, 48 h
[9] = target: T3, Lysine-specific demethylase 2A; experiment: Inhibition of KDM2A in human MIAPaCa2 cells assessed as increase in H3K36me2 level after 48 hrs by Hoechst 33258 staining based immunofluorescence assay; format: cell-based, MIA PaCa-2
[10] = target: T1, Lysine-specific demethylase 4A; experiment: biochemical

T2 sequence (P29375 whole entry): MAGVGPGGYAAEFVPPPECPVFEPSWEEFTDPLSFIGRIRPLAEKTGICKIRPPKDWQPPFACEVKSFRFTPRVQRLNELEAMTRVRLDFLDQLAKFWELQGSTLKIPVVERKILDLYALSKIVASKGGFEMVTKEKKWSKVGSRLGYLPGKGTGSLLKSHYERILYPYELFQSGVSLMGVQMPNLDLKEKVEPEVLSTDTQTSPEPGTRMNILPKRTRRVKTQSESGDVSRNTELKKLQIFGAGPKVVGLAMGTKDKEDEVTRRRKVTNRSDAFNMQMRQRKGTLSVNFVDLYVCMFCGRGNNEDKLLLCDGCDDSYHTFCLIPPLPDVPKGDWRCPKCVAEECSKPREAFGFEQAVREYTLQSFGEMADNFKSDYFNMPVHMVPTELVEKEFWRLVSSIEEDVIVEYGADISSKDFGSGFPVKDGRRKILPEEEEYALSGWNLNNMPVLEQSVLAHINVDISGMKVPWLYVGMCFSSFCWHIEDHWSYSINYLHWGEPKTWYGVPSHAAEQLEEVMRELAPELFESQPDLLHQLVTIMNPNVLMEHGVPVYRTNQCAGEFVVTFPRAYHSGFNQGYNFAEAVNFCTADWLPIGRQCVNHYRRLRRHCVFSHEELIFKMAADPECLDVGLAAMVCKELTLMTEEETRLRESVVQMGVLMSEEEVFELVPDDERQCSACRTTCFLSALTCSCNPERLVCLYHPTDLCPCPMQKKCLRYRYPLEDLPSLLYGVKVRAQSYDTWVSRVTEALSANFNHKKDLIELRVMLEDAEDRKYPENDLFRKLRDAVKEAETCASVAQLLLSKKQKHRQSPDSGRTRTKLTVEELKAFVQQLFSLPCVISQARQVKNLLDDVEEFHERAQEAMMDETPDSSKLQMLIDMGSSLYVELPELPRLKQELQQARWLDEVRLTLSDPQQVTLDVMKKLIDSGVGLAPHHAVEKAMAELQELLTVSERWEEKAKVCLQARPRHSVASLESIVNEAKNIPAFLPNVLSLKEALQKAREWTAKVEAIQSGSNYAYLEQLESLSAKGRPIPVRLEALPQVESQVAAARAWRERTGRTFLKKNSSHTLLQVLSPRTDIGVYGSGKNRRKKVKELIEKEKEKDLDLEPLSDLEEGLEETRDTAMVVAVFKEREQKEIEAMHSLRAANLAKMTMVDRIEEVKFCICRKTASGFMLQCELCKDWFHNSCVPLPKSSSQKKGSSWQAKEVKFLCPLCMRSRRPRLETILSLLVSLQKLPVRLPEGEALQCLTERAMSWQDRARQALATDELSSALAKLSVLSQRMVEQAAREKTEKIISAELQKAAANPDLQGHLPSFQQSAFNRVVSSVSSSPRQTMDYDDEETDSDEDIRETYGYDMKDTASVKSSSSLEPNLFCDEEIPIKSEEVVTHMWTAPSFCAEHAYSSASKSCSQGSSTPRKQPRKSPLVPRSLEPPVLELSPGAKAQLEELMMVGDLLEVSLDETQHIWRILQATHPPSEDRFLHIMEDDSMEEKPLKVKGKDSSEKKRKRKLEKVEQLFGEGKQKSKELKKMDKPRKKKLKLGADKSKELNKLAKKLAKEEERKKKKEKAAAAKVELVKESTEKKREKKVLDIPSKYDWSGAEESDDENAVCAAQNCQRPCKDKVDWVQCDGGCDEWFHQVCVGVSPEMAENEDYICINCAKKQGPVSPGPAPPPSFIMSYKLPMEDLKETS
Chain of Lysine-specific demethylase 6B (O15054 whole entry, the tested form may be a part): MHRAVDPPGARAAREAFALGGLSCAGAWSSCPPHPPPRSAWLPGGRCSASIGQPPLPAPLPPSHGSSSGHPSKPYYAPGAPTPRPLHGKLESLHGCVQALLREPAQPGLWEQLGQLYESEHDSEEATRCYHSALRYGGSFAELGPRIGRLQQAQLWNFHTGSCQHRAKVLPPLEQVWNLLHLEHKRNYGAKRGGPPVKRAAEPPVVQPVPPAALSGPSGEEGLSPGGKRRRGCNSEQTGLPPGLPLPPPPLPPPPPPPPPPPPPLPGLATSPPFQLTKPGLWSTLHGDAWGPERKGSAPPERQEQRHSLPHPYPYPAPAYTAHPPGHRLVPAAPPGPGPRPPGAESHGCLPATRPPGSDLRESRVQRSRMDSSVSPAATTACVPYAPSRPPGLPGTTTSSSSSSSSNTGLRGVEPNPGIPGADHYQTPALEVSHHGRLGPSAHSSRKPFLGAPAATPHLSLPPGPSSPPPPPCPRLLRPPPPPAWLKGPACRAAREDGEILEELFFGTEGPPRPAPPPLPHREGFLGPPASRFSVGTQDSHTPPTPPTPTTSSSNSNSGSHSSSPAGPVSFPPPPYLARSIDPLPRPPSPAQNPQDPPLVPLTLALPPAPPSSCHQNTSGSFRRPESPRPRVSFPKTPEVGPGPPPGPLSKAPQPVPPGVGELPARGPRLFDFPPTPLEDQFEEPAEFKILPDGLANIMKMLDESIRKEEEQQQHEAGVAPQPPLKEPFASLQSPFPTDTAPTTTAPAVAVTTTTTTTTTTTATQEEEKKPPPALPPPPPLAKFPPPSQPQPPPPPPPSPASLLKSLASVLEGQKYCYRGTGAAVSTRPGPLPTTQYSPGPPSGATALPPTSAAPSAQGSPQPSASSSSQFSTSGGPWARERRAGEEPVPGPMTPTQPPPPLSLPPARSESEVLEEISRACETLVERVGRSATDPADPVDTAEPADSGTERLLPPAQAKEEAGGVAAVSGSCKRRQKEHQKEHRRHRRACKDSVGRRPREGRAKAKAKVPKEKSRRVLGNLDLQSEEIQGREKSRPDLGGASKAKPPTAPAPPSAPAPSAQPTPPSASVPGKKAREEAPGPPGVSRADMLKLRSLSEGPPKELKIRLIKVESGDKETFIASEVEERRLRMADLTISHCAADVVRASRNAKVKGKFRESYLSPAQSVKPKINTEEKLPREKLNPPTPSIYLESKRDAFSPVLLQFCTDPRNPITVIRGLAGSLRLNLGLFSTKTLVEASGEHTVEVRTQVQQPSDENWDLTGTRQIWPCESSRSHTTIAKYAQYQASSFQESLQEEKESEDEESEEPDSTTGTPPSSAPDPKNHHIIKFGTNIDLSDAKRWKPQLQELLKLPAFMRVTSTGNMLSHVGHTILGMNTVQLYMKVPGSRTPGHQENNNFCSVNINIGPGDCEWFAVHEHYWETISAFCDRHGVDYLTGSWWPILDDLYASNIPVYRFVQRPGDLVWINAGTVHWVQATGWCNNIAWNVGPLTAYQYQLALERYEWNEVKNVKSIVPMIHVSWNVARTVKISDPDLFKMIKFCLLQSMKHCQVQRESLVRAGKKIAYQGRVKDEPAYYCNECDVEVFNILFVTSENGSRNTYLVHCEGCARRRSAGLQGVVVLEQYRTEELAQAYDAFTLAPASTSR

NNC(=O)Cc1nnn[nH]1
Ki [1]: 1940 nM
IC50 [2]: 10400 nM
IC50 [3]: 46600 nM
IC50 [4]: 98000 nM
IC50 [5]: 2400 nM

CCCCc1oc2ccccc2c1C(=O)c1cc(I)c(OCCCC[N+](C)(C)C)c(I)c1
IC50 [6]: 41000 nM

CCCCCC[n+]1ccc(/C=C/c2ccc(N(C)C)cc2)cc1
Ki [7]: 280 nM
GI50 [8]: 71 nM
EC50 [9]: 280 nM
Ki [10]: 420 nM
